Experimental data published in PMC6300878, “In vitro antiplasmodial activity, pharmacokinetic profiles and interference in isoprenoid pathway of 2-aniline-3-hydroxy-1.4-naphthoquinone derivatives” (Malaria Journal, 2018).

How the values were obtained:
[1] = solution with a maximum of 1% DMSO
Plasmodium berghei = tested on: Plasmodium berghei; design: method as in PMID 23850202; details: murine Plasmodium berghei model; cited from earlier work
[2] = cited from earlier work
[3] = tested on: tocopherol (TC) biosynthesis
Procedure: (§1) A flask was kept untreated and is considered the positive control. After 36 h, the culture was labeled with [1-(n)-^3H]GGPP (3.125 µCi/ml) in normal RPMI 1640 medium [32] during the last 16 h. The schizonts were purified by magnetic column (MACS Separation Columns “CS”, Miltenyi Biotec) [33]. The parasitaemia was estimated by microscopic examination of Giemsa-stained smears and the volume was adjusted of purified culture, according to the control, so that equal numbers of treated and untreated parasites were applied. After metabolic labelling and purification, lyophilized schizonts were used for extraction of MQ and TC. The final extract was injected into the HPLC-RT [34].
(§2) The molecules of MQ and TC were purified by an isocratic system with mobile phase methanol: ethanol (50:50 v/v), flow 0.5 ml/min and detection performed by UV absorption spectrum at a wavelength equal to 270 nm. The mobile phase was filtered on a PTFE (solvent A) and NYLON (solvent B) membrane of 0.20 µM. Radioactive fractions were dried by evaporation at 24 °C and resuspended in scintillation fluid. Quantification of the radioactivity (c.p.m.) was performed on the device Beckman 5000 β-radiation scintillation counter (Beckman, CA, USA) [34].
(§3) The IC50 was estimated by linear interpolation as compared to the drug-free controls, using the software GraphPad PRISM software. […]

[4] = tested on: menaquinone (MQ) biosynthesis
Procedure: as §1, §2, §3

Compound | Solubility [1] | Antiplasmodial activity in vivo (Plasmodium berghei) | Binding to plasma proteins [2] | Bioavailability [2] | Biopharmaceutics Classification (BCS) class [2] | inhibition [3] [%] | inhibition [4] [%]
O=C1C(O)=C(Nc2ccccc2)C(=O)c2ccccc21 [4a] | soluble | interesting antiplasmodial activity |  |  |  |  | 
O=C1C(O)=C([C@H]2CC[C@H](c3ccc(Cl)cc3)CC2)C(=O)c2ccccc21 [atovaquone] |  |  | high binding to plasma proteins | low bioavailability | class II |  | 
COc1ccc(NC2=C(O)C(=O)c3ccccc3C2=O)cc1 [4c] | soluble | interesting antiplasmodial activity |  |  |  | 49.6 | 58.1
